Measurements reported in patent publication US20040127439A1, “Introduction of the wld gene for prevention of axonal degeneration in neurological diseases” (priority 2004, published 2004).
Read-outs that look alike come from different tables or passages of the source.

Columns and labels:
[1] = test system: DRG neurites; experiment: Effect of treatment modalities on DRG area and neuritic length in control cultures (no vincristine); assay type: cell-based, rat; settings: for Area / Length: added to 5-day old cultures, after 6 days of treatment, no vincristine; for effects on neurite growth or survival in control cultures (in words): addition to control cultures
Excerpt: This date is defined as treatment day 0. Cultures are monitored and imaged daily using video microscopy. […] The final concentration of DMSO is 0.05%.

[2] = test system: axotomized neurites; experiment: Wallerian degeneration of axotomized DRG neurites in culture; assay type: cell-based, rat; settings: added at the time of axotomy; EGTA 2 mM or AK295 50 μM; 72 hours after axotomy
Method: Five-day old cultures with extended neurites are used. Neurites are cut by excising and removing the DRG with a scalpel blade. Care should be taken to remove substantially all neurons within the DRG. At least 1 ganglion/dish was left unaxotomized to serve as a control for that group of ganglia. For experiments involving therapeutic interventions, the media is changed just prior to axotomy to media containing either EGTA (2 mM) or AK295 (50 μM). Cultures are observed daily for 72 hours after axotomy, at which time they are fixed and immunostained.
Stained cultures are scored blindly for degree of axonal degeneration. […] Any fibers with interruptions along their length are scored as degenerated. The number of surviving fibers in each DRG are counted under 200× magnification, and the DRG is given a survival score of 0-3: 0 =no fibers remaining, 1=1-4 fibers remaining, 2=5-9 fibers remaining, 3=10 or more fibers remaining.

[3] = test system: DRG neurites; settings: for Area (DRG neuritic halo) / Length (longest neurite): Vin 0.01 μM, EGTA 2 mM
Method: On the day of DRG culture, the dishes are washed twice with PBS buffer (pH 7.4), filled with 550 μl medium and pre-incubated at 37 C for at least 2 hours. Fifteen-day old embryos (E15) are removed from pregnant Sprague-Dawley rats (Charles River), and spinal cords with cervical and thoracic DRGs attached are dissected into Leibovitz L-15 medium (GIBCO). Ganglia are separated from the spinal cord, stripped of their connective tissue sheaths and roots, and are then pooled and washed twice with PBS buffer (pH 7.4). DRGs are plated (4 per dish) in culture media and incubated at 37° C. in 5% carbon dioxide for 4 hours to allow DRGs to attach to the substrate. Medium is then added to bring the total volume to 1 ml. […] Calcium-free medium is prepared in the same manner, replacing MEM with S-MEM (GIBCO).
At the end of the treatment period (see below) DRGs are fixed for 30 minutes with 4% paraformaldehyde. Cultures are then rinsed with 0.1M TBS buffer, and treated sequentially with 3% H2O2, TBS-Triton, and 4% normal goat serum (NGS), each for 30 minutes at room temperature. DRGs are incubated at 4 C overnight in monoclonal antibody to MAP5 (1:500, Sigma). After washing in TBS-Triton, DRGs are incubated for 60 minutes in biotinylated secondary antibody, rinsed with TBS and reacted with avidin-biotin complex solution (ABC; Vector Labs) for one hour. Color is generated by incubation for 10 minutes in diaminobenzidine (DAB) solution, enhanced by addition of 0.025% cobalt chloride and 0.02% nickel ammonium sulfate. Stained tissue is rinsed, air dried and cover-slipped for microscopy with Crystal/Mount (Biomeda).
This method of allowing neuritic extension to proceed before addition of a neurotoxin tests the effect of the toxin on established neurites as opposed to the effect on primary neuritic outgrowth.
After day 5 of culture, the media is changed to that containing the experimental treatment. This date is defined as treatment day 0. Cultures are monitored and imaged daily using video microscopy. […] AK 295 (Z-leu-Abu-(CH2)3-4-morpholinyl, gift of Dr. James Powers, Georgia Institute of Technology), is dissolved in 100% DMSO and is then diluted to its final concentration with culture medium. The final concentration of DMSO is 0.05%. Phenylmethylsulfonyl fluoride (PMSF) is manufactured by and commercially available from Sigma.
After 6 days of treatment (11 days in culture) immunostained DRGs are quantitated for degree of axonal degeneration. Images of the DRGs and neurites are captured onto disk using a computerized video imaging system, and are analyzed using NIH Image version 1.61. DRG areas are calculated by tracing the outside circumference of the remaining culture halo. The length of the longest neurite of each DRG is measured from the center of the DRG to the distal end of the neurite, so that cultures without remaining neurites still have positive values. These quantitative data are subjected to ANOVA, with post-test correction for multiple comparisons.

[4] = Day 3 of treatment, AK295 50 μM
[5] = Day 4 of treatment, AK295 50 μM
[6] = Day 6 of treatment, AK295 50 μM, PMSF 50 μM

Row | Compound | Area [1] [mm^2] | Length [1] [mm] | effects on neurite growth or survival in control cultures (in words) [1] | protection against Wallerian degeneration (in words) [2] | Area (DRG neuritic halo) [3, 4] | Length (longest neurite) [3, 4] [mm] | Area (DRG neuritic halo) [3, 5] | Length (longest neurite) [3, 5] [mm] | Area (DRG neuritic halo) [3, 6] | Length (longest neurite) [3, 6] [mm] | protection against vincristine-induced axonal degeneration (in words) ([3]; EGTA 2 mM in standard media) | protection against vincristine-induced axonal degeneration (in words) ([3]; EGTA ≦1 mM in standard media) | protection against vincristine-induced axonal degeneration (in words) ([3]; PMSF 50 μM, day 6) | prevention of vincristine-induced axonal degeneration (in words) ([3]; AK295 1 μM (not shown)) | prevention of vincristine-induced axonal degeneration (in words) ([3]; AK295 10 μM (not shown)) | prevention of vincristine-induced axonal degeneration (in words) ([3]; AK295 50 μM)
1 | O=C(O)CN(CCOCCOCCN(CC(=O)O)CC(=O)O)CC(=O)O [EGTA] | 44.40 ± 2.74 | 4.74 ± 0.18 | no effects on neurite growth or survival | significant protection | 15.05 ± 1.78 (12) mm^2 | 2.62 ± 0.17 | 12.97 ± 0.94 mm^2 | 2.44 ± 0.13 | 13.36 ± 1.04 (14) mm^2 | 2.43 ± 0.07 | as effective as calcium-free media | ineffective |  |  |  | 
2 | O=S(=O)(F)Cc1ccccc1 [PMSF, Phenylmethylsulfonyl fluoride] |  |  |  |  |  |  |  |  | 0.73 ± 0.16 (43) mm^2 | 0.55 ± 0.06 |  |  | no protective effects |  |  | 
3 | CCC(NC(=O)[C@H](CC(C)C)NC(=O)OCc1ccccc1)C(=O)C(=O)NCCCN1CCOCC1 (stereo partly shown) [AK295, Z-leu-Abu-(CH2)3-4-morpholinyl] | 49.18 ± 2.69 | 4.80 ± 0.16 | no effects on neurite growth or survival | as protective as EGTA | 16.61 ± 1.18 (18) mm^2 | 2.65 ± 0.11 | 14.77 ± 2.19 (14) mm^2 | 2.45 ± 0.25 | 10.34 ± 2.14 (12) mm^2 | 2.05 ± 0.25 |  |  |  | ineffective | effective in preventing axonal degeneration | effective in preventing axonal degeneration
